How the values were obtained:
[1] = system: BJAB cells (lymphoma cell line); assay: Induction of apoptosis (DNA fragmentation, propidium iodide, FACS) in BJAB cells; assay type: cell-based, human; details: 0.1 mmol of complex A, 72 hours
Experimental: BJAB cells (lymphoma cell line) at a concentration of 1×10^5/ml were treated with increasing concentrations of complex A dissolved in DMSO and incubated for 72 hours at 37° C. and 5% CO2. Following propidium iodide staining, the DNA fragments were detected using flow cytometry (FACS analysis). KO (untreated cell suspension) and DMSO were carried along in an equivalent treatment.

[2] = system: BJAB cells; assay: Change in mitochondrial membrane potential (JC-1, flow cytometry) in BJAB cells; assay type: cell-based, human; details: 48 hours, concentration-dependent
Experimental: Following treatment of the BJAB cells with different concentrations of complex A, carrying along a zero control and a solvent control, the cells were incubated for 48 hours at a temperature of 37° C. and 5% CO2. […] A concentration-dependent change of the mitochondrial membrane potential induced by complex A is found in more than 30% of the cells.

[3] = system: melanoma B 16; assay: B 16 melanoma in mice, intraabdominal administration; assay type: in vivo, mice of the line C 57Bl; details: for Average volume of tumor / Average weight of tumor: days 3, 5, 7, 9
Experimental: The melanoma B 16 was implanted in 20 mice of the line C 57Bl by subcutaneous injection into the right thigh. The animals were divided into four groups of five mice each. Group I received complex A at a dosage of 7 mg/kg, dissolved in DMSO, which was administered intraabdominally in a 4% suspension in physiological saline. Each administration was performed 3, 5, 7 and 9 days after trans-plantation of the tumor.
Group II was treated as group I, but using a dosage of 5 mg/kg.
Group III was treated as group I, but received 5 mg/kg of melphalan hydrochloride instead of complex A.
Group IV remained untreated.

[4] = system: colon adenocarcinoma tumor (AKATOL); assay: Transplanted colon adenocarcinoma (AKATOL), intraabdominal injection; assay type: in vivo, mice of the BALB line; design: Average weight: unit not given here; details: for Average volume of tumor: day 21
Experimental: A suspension of tumor cells was injected into the thighs of 15 mice of the BALB line. The animals received the complex A preparation at a dose of 5 mg/kg 4, 6, 8 and 11 days after implantation.
Group I received the preparation dissolved in DMSO and dispersed in a 4% suspension in physiological saline.
Group II received the preparation in Tween 60.
Group III remained untreated.
(§1) On day 21 of the experiment the animals were sacrificed and examined.

[5] = system: colon adenocarcinoma tumor (AKATOL); assay: Transplanted colon adenocarcinoma (AKATOL), peroral administration; assay type: in vivo, mice of the BALB line; details: for Average weight of tumor: days 3 to 10, day 21
Experimental: Tumor cells were transplanted in mice of the BALB line by injection into the thighs. 3 of 4 groups received the respective preparation on the peroral route 3, 4, 5, 6, 7, 8, 9 and 10 days after tumor implantation.
Group I: 10 mg/kg complex A suspended in olive oil.
Group II: 5 mg/kg complex A suspended in olive oil.
Group III: 10 mg/kg sarcolysine suspended in olive oil.
as §1

[6] = system: Ehrlich ascites carcinoma (EAC) cells; assay: NADH state (fluorescence) in EAC cells; assay type: cell-based, mice
Experimental: (§2) The Ehrlich ascites carcinoma (EAC) was obtained from white male mice of the strain MNR1 and the thymocytes from the thymus of rats of the Wistar line. Vitality of the cells was tested by vital staining using trypan blue and experiments and determined to be no less than 95% in all experiments. The NADH state in the EAC cells was assessed with reference to their fluorescence intensity. Measurement of the intracellular calcium concentration was performed according to the standard methodology of fluorescence using chlortetracycline. The membrane potential was measured using the fluorescent dye No. 1104. NADH is a source of electrons in the oxidative phosphorylation process. […] These effects are directed to inhibiting the NAD-dependent dehydrogenase. As a result, the respiratory chain in the tumor cells is inhibited.

[7] = system: thymocytes; assay: Membrane potential of thymocytes (fluorescent dye); assay type: cell-based, rats of the Wistar line
Experimental: as §2
Moreover, the complexes A and C have an influence on the membrane potential of thymocytes.

[8] = system: human mammary gland tumor cells, T2N1M0 stage; assay: In vitro effect on human mammary gland tumor cells, Experiment 1; assay type: cell-based
Experimental: (§3) Tumor cells were collected from the surgical material of female patients suffering from mammary carcinoma at two different stages. The tumor tissue was added with sterile 0.25% trypsin solution and centrifuged repeatedly in RPMI-1640 nutrient medium for 15 minutes at 1500 revolutions per minute. The amount of resulting cells was counted and the suspension of tumor cells divided into five equal groups. The RPMI-1640 nutrient medium was added with 12% fetal calf serum. The cells were incubated for 48 h at 37° C. in a 5% CO2 stream.
(§4) The preparations were dissolved in 4% DMSO and physiological saline and acidified with HCl.
(§5) Two experiments were performed using cancer cells derived from tumors of different stages. To differentiate the various stages of cancer, the TNM classification is used internationally which takes into account the tumor size (T), lymph node affection (N=nodal status) and the extent of metastasis (M).
(T2: tumor up to 5 cm; N1; metastases in 3 lymph nodes; M0: no distant metastases). A suspension including 40 million cells was added with 50 μl of each preparation.
(§6) The 5 groups with cancer cells received the following:
(§7) After subjecting the preparations to flow incubation for 60 minutes, trypan blue stained cells were produced, and dead cells and apoptosis could be determined; dead cells and apoptotic cells were determined in specific units of time and morphological findings.

[9] = system: human mammary gland tumor cells, T4N2M0 stage; assay: In vitro effect on human mammary gland tumor cells, Experiment 2; assay type: cell-based
Experimental: as §3, §4, §5
(T3: large tumor spreading into the tissue surrounding the breast; N2: metastases up to 9 axillary lymph nodes, M0: no distant metastases). A suspension including 40 million cells was added with 50 μl of each preparation.
as §6, §7

[10] = Group I: 5 mg/kg in DMSO/physiological saline

Copper-sarcolysine hydrochloride complex [complex A]
induction of apoptosis, % of the cells [1]: 43.5%
cells with change of the mitochondrial membrane potential [2]: more than 30%
Apoptotic index AI ([3]; 5 mg/kg intraabdominally): 3.68 ‰
Bone marrow index MI BM ([3]; 5 mg/kg intraabdominally): 3.975 ‰
Inhibition of tumor growth, mass percent ([3]; 5 mg/kg intraabdominally): mass percent 84.44%
Inhibition of tumor growth, volume percent ([3]; 5 mg/kg intraabdominally): volume percent 80.00%
Mitotic index of tumor cells MI ([3]; 5 mg/kg intraabdominally): 2.175 ‰
Average volume of tumor ([3]; 5 mg/kg intraabdominally): 0.436 cm^3
Average weight of tumor ([3]; 5 mg/kg intraabdominally): 202.25 mg
Apoptotic index AI ([3]; 7 mg/kg intraabdominally): 4.25 ‰
Bone marrow index MI BM ([3]; 7 mg/kg intraabdominally): 3.575 ‰
Inhibition of tumor growth, mass percent ([3]; 7 mg/kg intraabdominally): mass percent 89.5%
Inhibition of tumor growth, volume percent ([3]; 7 mg/kg intraabdominally): volume percent 98.67%
Mitotic index of tumor cells MI ([3]; 7 mg/kg intraabdominally): 1.3. ‰
Average volume of tumor ([3]; 7 mg/kg intraabdominally): 0.029 cm^3
Average weight of tumor ([3]; 7 mg/kg intraabdominally): 136.8 mg
Average volume of tumor ([4]; Group I: 5 mg/kg in DMSO, 4% suspension in physiological saline): 1.315 cm^3
% inhibition, mass percent [4, 10]: 60.4%
% inhibition, volume percent [4, 10]: 87.1%
Average weight [4, 10]: 1.25
% inhibition, mass percent ([4]; Group II: 5 mg/kg in Tween 60): 95.85%
% inhibition, volume percent ([4]; Group II: 5 mg/kg in Tween 60): 97.8%
Average weight ([4]; Group II: 5 mg/kg in Tween 60): 0.25
Average volume of tumor ([4]; Group II: 5 mg/kg in Tween 60): 0.217 cm^3
% inhibition ([5]; 5 mg/kg peroral in olive oil): 68%
Average weight of tumor ([5]; 5 mg/kg peroral in olive oil): 1.04 g
% inhibition ([5]; 10 mg/kg peroral in olive oil): 81.5%
Average weight of tumor ([5]; 10 mg/kg peroral in olive oil): 0.71 g
response to oligomycin [6]: reduce the response to oligomycin
influence on the membrane potential of thymocytes [7]: hyperpolarization of the cell membranes
Living cells, % ([8]; Experiment 1, T2N1M0): 24.0 ± 1.90%
Dead cells, % ([8]; Experiment 1, T2N1M0, 40 million cells, 50 μl of preparation): 76.0 ± 2.06%
Living cells, % ([9]; Experiment 2, T4N2M0): 18.0 ± 1.71%
Dead cells, % ([9]; Experiment 2, T4N2M0, 40 million cells, 50 μl of preparation): 82.0 ± 1.78%
